# Data published in US20040062764A1, “Chemoprotectant for gastric toxicity” (priority 2003, published 2004).
# “Also recorded” adds a separate entry of the source. Where two headings read alike, the source gives them in different places.
# What was measured:
# [1] = test system: normal human gastric cells (NHGC); details: for percent viable gastric cells, BR96-DOX plus chemoprotectant (FIGS. 3 and 4): with or without BSO pretreatment
# Experimental: Cytotoxicity was assessed in cultured normal human gastric cells (NHGC), using the WST colorometric assay for live cells. Cells were treated with approximately LD90 dose of BR96-DOX, immediately followed by NAC at the indicated concentrations.
# (§1) A NHGC cell line and a human gastric carcinoma cell line (AGS) were obtained.
# [2] = after a bolus injection; cited from earlier work
# [3] = test system: human gastric carcinoma cell line (AGS); assay: Cytotoxicity dose response in gastric carcinoma cells; details: for EC50: Homo sapiens, AGS; for cell survival, comparison of combinations (FIGS. 5 and 6): NAC+BSO+BR96-DOX versus BR96-DOX+BSO without NAC
# Experimental: as §1
# The dose response curves for BR96-DOX and doxorubicin with or without the addition of buthionine sulfoximine (BSO) at a concentration of 100 μM were assessed.
# B.5 LX-1 SCLC cells = assay: WST colorometric live-cell assay, NAC chemoprotection against alkylating chemotherapy; type: cell-based; details: Homo sapiens; approx. LD90 chemotherapy (melphalan 20 μM, carboplatin 200 μM, cisplatin 20 μM); NAC added immediately after; all three drugs; read-out: NAC concentration for half-maximal protection against cell death
# Experimental: Cytotoxicity was assessed in cultured B.5 LX-1 SCLC cells, using the WST colorometric assay for live cells. Cells were treated with approximately LD90 dose of chemotherapy (melphalan=20 μM, carboplatin=200 μM, cisplatin=20 μM). Immediately following chemotherapy, NAC chemoprotectant was added at the indicated concentration. NAC protected against cell death by all three chemotherapeutic drugs, with half-maximal protection found between 0.1 mg/ml NAC and 0.3 mg/ml NAC.
# [4] = NAC biodistribution with radiolabelled tracer; type: in vivo, rat
# Experimental: (§2) NAC biodistribution was determined with radiolabelled tracer (n=12). Blood and tissue GSH levels were measured with a colorometric kit 9 (n=19). For bone marrow toxicity studies, rats were treated with or without BSO (10 g/m^2 i.p. b.i.d.×3 days), followed by chemotherapy consisting of intra-carotid carboplatin (200 mg/m^2), melphalan (10 mg/m^2) and etoposide phosphate (100 mg/m^2) (n=61). The dose of NAC was 1200 mg/m^2 and STS was 8 gm/m^2. White blood cell and platelet counts were obtained prior to, at 6 days and 9-10 days after chemotherapy.
# bone marrow = assay: Bone marrow toxicity study after intra-carotid combination chemotherapy
# Experimental: as §2
# [5] = test system: low-expressor and high-expressor subclones of the LX-1 SCLC cell line; assay: BSO cytoenhancement in LX-1 SCLC subclones; type: cell-based, human; details: low- and high-expressor LX-1 subclones
# GSH = assay: Blood and tissue GSH levels, colorometric kit; type: in vivo, nude rats; details: BSO 10 g/m^2 i.p. b.i.d. x 3 days; even in brain and intracerebral tumor
# Experimental: as §2
smiles,measurement,setting,value
"O=S([O-])([O-])=S.[Na+].[Na+] [STS, sodium thiosulfate]","reduction of BR96-DOX cell kill, other chemoprotective agents",[1]; NHGC,no significant effect
same,plasma half life,[2],about 17 minutes
COc1cccc2c1C(=O)c1c(O)c3c(c(O)c1C2=O)C[C@@](O)(C(=O)CO)C[C@@H]3O[C@H]1C[C@H](N)[C@H](O)[C@H](C)O1 [doxorubicin],EC50,"[3]; read-out: half maximal cytotoxic dose (EC50), AGS cells, absence of BSO",0.1 µg/mL
same,EC50,"[3]; read-out: half maximal cytotoxic dose (EC50), AGS cells, pretreatment with BSO 100 μM",~0.05 µg/mL
"CC(=O)N[C@@H](CS)C(=O)O [NAC, N-acetylcysteine]",EC50,B.5 LX-1 SCLC cells,100 to 300 µg/mL
same,protection against BR96-DOX cytotoxicity in normal gastric cells,[1]; NHGC,protected the normal gastric cells; also recorded: at least partially protective; also recorded: protective independent of the presence of BSO
same,reduction of BR96-DOX cell kill,"[1]; NHGC, experiment 1",25%
same,reduction of BR96-DOX cell kill,"[1]; NHGC, experiment 2",95%
same,reduction of BR96-DOX cell kill,"[1]; NHGC, experiment 3",55%
same,protective NAC concentration relative to that required against alkylating chemotherapeutics,[1]; NHGC/BR96-DOX vs B.5 LX-1/alkylators,10 fold
same,"percent viable gastric cells, BR96-DOX plus chemoprotectant (FIGS. 3 and 4)",[1],increased the percentage of viable gastric cells
same,effect on BSO-enhanced BR96-DOX cytotoxicity,[3],did reverse the enhanced cytotoxicity
same,effect on response to BR96-DOX,[3]; AGS cells not treated with BSO,did not alter the response
same,"cell survival, comparison of combinations (FIGS. 5 and 6)",[3],greatest amount of cells survived
same,systemic delivery of radiolabelled NAC,[4]; aortic infusion,increasing systemic delivery
same,brain delivery of radiolabelled NAC,"[4]; aortic infusion (retrograde left external carotid, left internal carotid occluded)",negligible levels
same,brain delivery of radiolabelled NAC,"[4]; intraarterial, right carotid artery",high delivery to the right cerebral hemisphere
same,granulocytes at nadir,"bone marrow; day 6, NAC 1200 mg/m^2 aortic infusion before intra-carotid chemotherapy, no BSO, no NAC: 146±160, p<0.02",785±494
same,platelets at nadir,"bone marrow; day 6, NAC 1200 mg/m^2 aortic infusion before intra-carotid chemotherapy, no BSO, no NAC: 215±126, p<0.02",470±234
"CSCC[C@@H](N)C(=O)O [d-Methionine, D-methionine]","reduction of BR96-DOX cell kill, other chemoprotective agents",[1]; NHGC,no significant effect
"CCCCS(=N)(=O)CCC(N)C(=O)O (stereo not shown) [BSO, buthionine sulfoximine]",effect of BSO on cytotoxicity of BR96-DOX or doxorubicin in normal gastric cells,[1]; NHGC,did not increase toxicity; also recorded: did not enhance the cytotoxicity
same,effect of BSO on cytotoxicity in carcinoma cells,[3],enhanced cytotoxicity
same,"cell survival, comparison of combinations (FIGS. 5 and 6)",[3],least survival
same,effect of BSO on cytotoxicity of BR96-DOX or doxorubicin,[5],did not enhance the cytotoxicity
same,reduction of blood and tissue GSH levels,GSH,50-65%
same,bone marrow toxicity of combination chemotherapy,"bone marrow; BSO pretreatment, intra-carotid carboplatin, melphalan, etoposide phosphate",enhanced the bone marrow toxicity
CCOC(=O)CNC(=O)[C@H](CS)NC(=O)CC[C@H](N)C(=O)O [GSH ethyl ester],"reduction of BR96-DOX cell kill, other chemoprotective agents",[1]; NHGC,15-20%
same,"percent viable gastric cells, BR96-DOX plus chemoprotectant (FIGS. 3 and 4)",[1],second highest amount of viable gastric cells
